Assays:
[1] = target: Acetylcholinesterase (Electrophorus electricus, UniProt O42275); experiment: (§1) Inhibition of electric eel AChE by Ellman's method
[2] = Lipophilicity, log D of the compound; assay type: physicochemical; details: octanol/water
[3] = target: Acetylcholinesterase (Electrophorus electricus) (UniProt O42275); experiment: as §1
Chain of Acetylcholinesterase (Electrophorus electricus) (O42275 24-633 limits assumed): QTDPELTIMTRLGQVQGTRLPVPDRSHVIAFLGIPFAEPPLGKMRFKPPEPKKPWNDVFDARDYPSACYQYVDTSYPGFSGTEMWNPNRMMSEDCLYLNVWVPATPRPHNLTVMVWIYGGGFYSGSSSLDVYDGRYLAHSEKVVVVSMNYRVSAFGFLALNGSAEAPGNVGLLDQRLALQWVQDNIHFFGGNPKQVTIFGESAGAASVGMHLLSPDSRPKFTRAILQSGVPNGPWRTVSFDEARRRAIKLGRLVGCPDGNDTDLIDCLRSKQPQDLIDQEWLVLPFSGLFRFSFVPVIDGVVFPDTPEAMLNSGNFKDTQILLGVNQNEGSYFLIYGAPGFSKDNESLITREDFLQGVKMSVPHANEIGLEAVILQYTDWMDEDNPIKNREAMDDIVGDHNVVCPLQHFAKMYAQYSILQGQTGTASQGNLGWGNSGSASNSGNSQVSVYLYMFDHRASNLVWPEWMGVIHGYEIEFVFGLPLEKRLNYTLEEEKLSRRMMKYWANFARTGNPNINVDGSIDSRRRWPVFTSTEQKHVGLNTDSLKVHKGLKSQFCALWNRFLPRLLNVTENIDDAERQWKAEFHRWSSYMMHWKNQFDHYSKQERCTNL

Chain of Acetylcholinesterase (O42275 whole entry): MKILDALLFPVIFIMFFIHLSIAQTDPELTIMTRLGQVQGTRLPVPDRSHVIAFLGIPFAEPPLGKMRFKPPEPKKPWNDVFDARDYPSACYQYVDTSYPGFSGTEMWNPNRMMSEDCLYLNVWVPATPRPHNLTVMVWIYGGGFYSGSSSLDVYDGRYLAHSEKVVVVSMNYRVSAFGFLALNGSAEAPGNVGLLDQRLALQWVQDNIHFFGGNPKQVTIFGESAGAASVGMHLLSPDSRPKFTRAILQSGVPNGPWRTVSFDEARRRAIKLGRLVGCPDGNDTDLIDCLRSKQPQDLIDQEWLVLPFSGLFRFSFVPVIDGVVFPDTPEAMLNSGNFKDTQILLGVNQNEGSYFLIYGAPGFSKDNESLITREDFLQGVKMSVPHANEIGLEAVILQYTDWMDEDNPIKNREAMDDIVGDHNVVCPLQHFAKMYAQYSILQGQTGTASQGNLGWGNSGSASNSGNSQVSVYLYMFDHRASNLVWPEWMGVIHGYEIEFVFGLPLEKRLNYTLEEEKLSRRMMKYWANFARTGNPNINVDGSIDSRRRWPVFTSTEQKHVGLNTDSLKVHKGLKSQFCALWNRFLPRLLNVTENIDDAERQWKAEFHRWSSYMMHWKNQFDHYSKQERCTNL

Compound | IC50 [1] [µM] | logD [2] | inhibition [3]
COc1cc(/C=N/NC(=O)c2ccc(COc3c(F)c(F)c(F)c(F)c3F)cc2)ccc1O | 6.7 | 5.02 | 
CC(=O)Nc1ccc(-c2nnc(SCC(=O)Nc3ccc(Br)cc3Cl)n2C)cc1 | 10.5 | 3.61 | 
CCOc1cc(/C=N/NC(=O)c2cc(-c3cccc(OC)c3)n[nH]2)ccc1O | 7.8 | 3.44 | 
Cc1cccc(OCC(=O)Nc2cccc(Oc3ccc4c(c3)C(=O)NC4=O)c2)c1C | 14.9 | 3.81 | 
C=C(C)COc1cc(C)cc2oc(=O)c(CC(=O)NCc3ccc(S(N)(=O)=O)cc3)c(C)c12 | 12.3 | 3.4 | 
COc1ccc(NC(=O)c2ccc(NS(=O)(=O)c3cc4c5c(cccc5c3)C(=O)N4)cc2)cc1 | > 100 | 2.95 | 
COc1cc(/C=N/NC(=O)CSc2nnc(-c3ccc(OC)c(OC)c3)n2-c2ccccc2)ccc1O | > 100 | 4.4 | 
O=C1Nc2cc(S(=O)(=O)Nc3ccc(Oc4ccccc4)cc3)cc3cccc1c23 | 9.9 | 3.74 | 
CCNS(=O)(=O)c1ccc(NC(=O)c2ccc(Cn3nc(C)cc3C)o2)cc1 | 1.5 | 2.01 | Dose-dependent effect
CC1CCc2c(sc3nc(SCC(=O)Nc4ccc(S(N)(=O)=O)cc4)n(N)c(=O)c23)C1 (configuration not stated) | 5.9 | 2.3 | Dose-dependent effect
O=C1Nc2ccccc2/C1=N/NC(=O)c1ccc(Nc2nc(-c3ccccc3)cs2)cc1 | 9.5 | 4.26 | 
C=CCn1c2ccccc2c2nnc(SCC(=O)Nc3ccc(S(N)(=O)=O)cc3)nc21 | 6.5 | 1.34 | Dose-dependent effect
C=CCn1c(SCCCC(=O)Nc2ccc(S(N)(=O)=O)cc2)nc2sc3c(c2c1=O)CCCC3 | 2.5 | 3.93 | Dose-dependent effect
CCOc1cc(C(=O)NNC(=S)Nc2ccc(S(N)(=O)=O)cc2)cc(OCC)c1OCC | 4.8 | 2.65 | Dose-dependent effect
COc1cc(/C=C/C(=O)NCCCCCNc2c3c(nc4ccccc24)CCCC3)ccc1O |  | 5.78 | 
COc1cc(/C=C/C(=O)NCCCCNc2c3c(nc4ccccc24)CCCC3)ccc1O |  | 5.33 | 
COc1cc(/C=N/NC(=O)c2ccc(COc3cccc(Cl)c3)o2)cc(Br)c1O | 9.8 | 4.86 | 
